Measured values as given in patent US8853229B2, “Composition containing statins and omega-3 fatty acids” (Sigma-Tau Industrie Farmaceutiche Riunite S.p.A., priority 2004, dated 2014).

Key:
Assay type in all cases: in vivo, mouse
C57BL/KsJ db/db mice [1] = assay: Plasma HDL-cholesterol levels of db/db mice; settings: oral twice daily for 25 days, post-absorption conditions, 7.30 hours after last treatment
Experimental: (§1) The C57BL/KsJ db/db mice used in the experiments were supplied by Jackson Lab (via Ch. River). After 10 days of acclimatisation in standard conditions (22±2° C.; 55±15% humidity; 15-20 air changes/hour; 12 hour light-darkness cycle with light from 7 a.m. to 7 p.m.) on a standard 4 RF21 diet (Mucedola), blood samples were taken in post-absorption conditions (fasting from 8.30 a.m. to 4.30 p.m.) from the caudal vein with the aid of a Jelco 22G catheter (Johnson and Johnson). Glucose, insulin, triglyceride, cholesterol, free fatty acid and urea levels were checked in the plasma to ensure well-matched distribution of the mice in the treatment groups.
(§2) The mice were divided into groups and treated orally twice daily with:
(§3) Omega-3 fatty acid (EPA+DHA 1:1) 200 mg/kg;
(§4) Omega-3 fatty acid (200 mg/kg)+simvastatin (100 mg/kg);
(§5) Omega-3 fatty acid (200 mg/kg)+simvastatin (100 mg/kg); Coenzyme Q10 (50 mg/kg)+resveratrol (5 mg/kg)+policosanols (hexacosanol 25 mg/kg)+pantethine (100 mg/kg+selenium (0.5 μg/kg)+zinc (2.5 mg/kg).
(§6) In the course of the experiment, serum glucose levels, glucose tolerance (OGTT), a number of lipid status variables and weight gain were monitored.

C57BL/KsJ db/db mice [2] = assay: Plasma fructosamine levels of db/db mice; settings: oral twice daily for 25 days, post-absorption condition, 7.30 hours after last treatment
Experimental: as §1, §2, §3, §4, §5, §6

C57BL/KsJ db/db mice [3] = assay: Blood glucose levels of db/db mice (antidiabetic activity); settings: for Glucose: mean ± S.E.
Excerpt: Mutations in laboratory animals have made it possible to develop models that present non-insulin-dependent diabetes associated with obesity, hyperlipidaemia and insulin resistance and that enable us to test the efficacy of new antidiabetic compounds (Reed and Scribner, Diabetes, obesity and metabolism 1: 75-86, 1999).
A much used genetically diabetic mouse model is the C57BL/KsJ db/db mouse.
The genetic basis of this model is a defect in the leptin receptor gene which gives rise to leptin resistance and leads to hyperphagia, obesity, hyperinsulinaemia and insulin resistance, with subsequent symptoms of insufficient insulin secretion and hyperglycaemia (Kodama et al., Diabetologia 37: 739-744, 1994; Chen et al., Cell 84: 491-495, 1996). Since hyperglycaemia is accompanied by obesity and insulin resistance, the db/db mouse has characteristics that are close to those of type 2 diabetes in man and is useful for assaying insulin-sensitising compounds.
as §1
At the start of treatment, the body weight of the animals was checked and monitoring of the animals' consumption of water and feed was scheduled.
as §2, §3, §4, §5, §6

C57BL/KsJ db/db mice [4] = assay: Plasma triglyceride levels of db/db mice; settings: oral twice daily for 25 days, post-absorption condition, 7.30 hours after last treatment
Experimental: (§7) The C57BL/KsJ db/db mice used in the experiments were supplied by Jackson Lab (via Ch. River). […] Glucose, insulin, triglyceride, cholesterol, free fatty acid and urea levels were checked in the plasma to ensure well-matched distribution of the mice in the treatment groups.
as §2, §3, §4, §5, §6

C57BL/KsJ db/db mice [5] = assay: Oral glucose tolerance test (OGTT) in db/db mice; settings: oral twice daily for 18 days, OGTT glucose 3 g/kg, fasted 18 hours, 5 hours after last treatment
Experimental: as §7, §2, §3, §4, §5, §6

[6] = oral twice daily for 12 days, feeding condition, approx. 15 hours after last treatment
[7] = oral twice daily for 18 days, fasted for 18 hours, 5 hours after last treatment

CCC(C)(C)C(=O)O[C@H]1C[C@@H](C)C=C2C=C[C@H](C)[C@H](CC[C@@H]3C[C@@H](O)CC(=O)O3)[C@H]21 [Simvastatin]
% Variation (HDL-cholesterol) vs control (C57BL/KsJ db/db mice [1]): −11.7%
HDL-cholesterol (C57BL/KsJ db/db mice [1]; mean ± S.E.): 72.4 ± 4.6 mg/dL
% Variation (fructosamine) vs control (C57BL/KsJ db/db mice [2]): −2.5%
Fructosamine (C57BL/KsJ db/db mice [2]; mean ± S.E.): 0.78 ± 0.12 mM
% Variation (glucose) vs control (C57BL/KsJ db/db mice [3]; [6]): −7.6%
Glucose (C57BL/KsJ db/db mice [3]; [6]): 450 ± 21 mg/dL
Glucose (C57BL/KsJ db/db mice [3]; oral twice daily for 12 days, post-absorption condition (fasting 9 a.m. to 5 p.m.), 8 hours after last treatment): 419 ± 33 mg/dL
% Variation (glucose) vs control (C57BL/KsJ db/db mice [3]; oral twice daily for 12 days, post-absorption condition, 8 hours after last treatment): 1.2%
% Variation (glucose) vs control (C57BL/KsJ db/db mice [3]; [7]): −5.5%
Glucose (C57BL/KsJ db/db mice [3]; [7]): 325 ± 27 mg/dL
Variation (triglycerides) vs control (C57BL/KsJ db/db mice [4]): −16.5%
Triglycerides (C57BL/KsJ db/db mice [4]; mean ± S.E.): 79.7 ± 5.1 mg/dL
% Variation (AUC glucose, OGTT) vs control (C57BL/KsJ db/db mice [5]): −5.9%
AUC Glucose (OGTT) (C57BL/KsJ db/db mice [5]; mean ± S.E.): 48174 ± 3555 u.a.
